# From patent US10543212B2, “Substituted amines for treating cardiac diseases” (Cardurion Pharmaceuticals, LLC, priority 2017, dated 2020)
# Molecular target: T1, Full-length, GST-tagged, human CaMKIIδ (Homo sapiens, UniProt Q13557)
# T1 construct: Full-Length, Glutathione-S-Transferase(GST)-Tagged, Human CaMKIIδ was purchased from Carna Biosciences; purchased Carna Biosciences 02-111
# Assay: CaMKIIδ binding assay (TR-FRET with BODIPY-labeled probe ligand)
# Settings: CaMKIIδ binding assay, results of Table 2
# Outline: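 Compounds were tested as 4-fold, eight-point series for 1 hr at room temperature, and IC50 was obtained by logistic fitting against a 3 μM parent-compound control. Signal came from displacement of a 300 nM BODIPY ligand from 0.5 nM GST-CaMKIIδ, detected via Tb-anti-GST in calmodulin/Ca2+ (pH 7.6).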
# T1 sequence (Q13557 1-478 isoform Q13557-12): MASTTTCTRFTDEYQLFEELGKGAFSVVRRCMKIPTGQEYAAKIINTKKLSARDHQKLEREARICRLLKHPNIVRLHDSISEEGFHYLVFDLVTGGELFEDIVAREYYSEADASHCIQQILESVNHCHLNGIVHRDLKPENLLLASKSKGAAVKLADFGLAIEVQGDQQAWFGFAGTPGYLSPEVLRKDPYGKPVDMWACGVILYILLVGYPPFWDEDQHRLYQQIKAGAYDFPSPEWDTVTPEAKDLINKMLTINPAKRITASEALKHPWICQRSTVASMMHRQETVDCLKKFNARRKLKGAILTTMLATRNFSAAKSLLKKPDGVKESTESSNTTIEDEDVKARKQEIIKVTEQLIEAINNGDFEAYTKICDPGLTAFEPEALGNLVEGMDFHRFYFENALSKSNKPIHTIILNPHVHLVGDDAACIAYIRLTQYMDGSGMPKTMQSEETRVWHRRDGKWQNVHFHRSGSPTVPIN
row,SMILES,IC50 [nM]
1,"C[C@@H](Cn1cnnn1)Oc1cc(-c2cnc(Nc3cn(C4CCN(C5CCC(F)(F)CC5)CC4)nc3C(F)(F)F)nc2)ccc1Cl [Example 555, (S)-5-(3-((1-(1H-tetrazol-1-yl)propan-2-yl)oxy)-4-chlorophenyl)-N-(1-(1-(4,4-difluorocyclohexyl)piperidin-4-yl)-3-(trifluoromethyl)-1H-pyrazol-4-yl)pyrimidin-2-amine]",< 10
2,"COCCN1CCc2cc(Nc3ncc(-c4ccc(Cl)c(O[C@@H](C)Cn5cnnn5)c4)cn3)c(OC)cc2C1 [Example 492, (S)-N-(5-(3-((1-(1H-tetrazol-1-yl)propan-2-yl)oxy)-4-chlorophenyl)pyrimidin-2-yl)-7-methoxy-2-(2-methoxyethyl)-1,2,3,4-tetrahydroisoquinolin-6-amine]",< 10
3,"Cc1cc(N2CCC(N3CCOCC3)CC2)ccc1Nc1ncc(-c2ccc(Cl)c(O[C@@H](C)Cn3cnnn3)c2)cn1 [Example 453, (S)-5-(3-((1-(1H-tetrazol-1-yl)propan-2-yl)oxy)-4-chlorophenyl)-N-(2-methyl-4-(4-morpholinopiperidin-1-yl)phenyl)pyrimidin-2-amine]",< 10
4,"C[C@@H](Cn1cnnn1)Oc1cc(-c2cnc(Nc3ccc(N4CCC(N5CCOCC5)CC4)cc3C(N)=O)nc2)ccc1Cl [Example 444, (S)-2-((5-(3-((1-(1H-tetrazol-1-yl)propan-2-yl)oxy)-4-chlorophenyl)pyrimidin-2-yl)amino)-5-(4-morpholinopiperidin-1-yl)benzamide]",≥ 100
5,"COc1cc2c(cc1Nc1ncc(-c3ccc(Cl)c(O[C@@H](C)Cn4cnnn4)c3)cn1)N(C(=O)CN1CCOCC1)CC2 [Example 498, (S)-1-(6-((5-(3-((1-(1H-tetrazol-1-yl)propan-2-yl)oxy)-4-chlorophenyl)pyrimidin-2-yl)amino)-5-methoxyindolin-1-yl)-2-morpholinoethan-1-one]",≥ 100
6,"C[C@@H](Cn1cnnn1)Oc1cc(-c2cnc(Nc3cn(C4CCN(Cc5ccccn5)CC4)nc3C(F)(F)F)nc2)ccc1Cl [Example 564, (S)-5-(3-((1-(1H-tetrazol-1-yl)propan-2-yl)oxy)-4-chlorophenyl)-N-(1-(1-(pyridin-2-ylmethyl)piperidin-4-yl)-3-(trifluoromethyl)-1H-pyrazol-4-yl)pyrimidin-2-amine]",< 10
7,"COc1cc2c(cc1Nc1ncc(-c3ccc(C#N)c(O[C@@H](C)Cn4cnnn4)c3)cn1)C(=O)N(CC1COC1)C2 [Example 446, (S)-2-((1-(1H-tetrazol-1-yl)propan-2-yl)oxy)-4-(2-((6-methoxy-2-(oxetan-3-ylmethyl)-3-oxoisoindolin-5-yl)amino)pyrimidin-5-yl)benzonitrile]",10 to 100

# Same assay, conditions: CaMKIIδ binding assay; activity class per Table 2
row,SMILES,IC50 [nM]
1,"C[C@@H](CN1CCCC1=O)Oc1cc(-c2cnc(Nc3cn([C@H]4CC[C@H](N5CCOCC5)CC4)nc3C(F)(F)F)nc2)ccc1C#N [Example 900, 4-(2-((1-(trans-4-morpholinocyclohexyl)-3-(trifluoromethyl)-1H-pyrazol-4-yl)amino)pyrimidin-5-yl)-2-(((S)-1-(2-oxopyrrolidin-1-yl)propan-2-yl)oxy)benzonitrile]",10 to 100
2,"CC(C)c1nn(C2CC3(C2)CN(C2COCOC2)C3)cc1Nc1ncc(-c2ccc(Cl)c(O[C@@H](C)Cn3cnnn3)c2)cn1 [Example 1013, (S)-N-(1-(2-(1,3-dioxan-5-yl)-2-azaspiro[3.3]heptan-6-yl)-3-isopropyl-1H-pyrazol-4-yl)-5-(3-((1-(1H-tetrazol-1-yl)propan-2-yl)oxy)-4-chlorophenyl)pyrimidin-2-amine]",< 10
3,"CCOC(=O)C1(n2cc(Nc3ncc(-c4ccc(Cl)c(O[C@@H](C)Cn5cnnn5)c4)cn3)c(OCC(F)(F)F)n2)CCC1 [Example 915, ethyl (S)-1-(4-((5-(3-((1-(1H-tetrazol-1-yl)propan-2-yl)oxy)-4-chlorophenyl)pyrimidin-2-yl)amino)-3-(2,2,2-trifluoroethoxy)-1H-pyrazol-1-yl)cyclobutane-1-carboxylate]",< 10
4,"C[C@@H](Cn1cnnn1)Oc1cc(-c2cnc(Nc3cn([C@H]4C[C@H](NC(=O)OC(C)(C)C)C4)nc3OCC(F)(F)F)nc2)ccc1Cl [Example 940, tert-butyl (trans-3-(4-((5-(3-(((S)-1-(1H-tetrazol-1-yl)propan-2-yl)oxy)-4-chlorophenyl)pyrimidin-2-yl)amino)-3-(2,2,2-trifluoroethoxy)-1H-pyrazol-1-yl)cyclobutyl)carbamate]",10 to 100
5,"CCC1(N2CC3(CC(n4cc(Nc5ncc(-c6ccc(Cl)c(O[C@@H](C)Cn7cnnn7)c6)cn5)c(OCC(F)(F)F)n4)C3)C2)CCOCC1 [Example 955, (S)-5-(3-((1-(1H-tetrazol-1-yl)propan-2-yl)oxy)-4-chlorophenyl)-N-(1-(2-(4-ethyltetrahydro-2H-pyran-4-yl)-2-azaspiro[3.3]heptan-6-yl)-3-(2,2,2-trifluoroethoxy)-1H-pyrazol-4-yl)pyrimidin-2-amine]",< 10
6,"C[C@@H](Cn1cnnn1)Oc1cc(-c2cnc(Nc3cn(CCNS(C)(=O)=O)nc3C(F)(F)F)nc2)ccc1Cl [Example 884, (S)-N-(2-(4-((5-(3-((1-(1H-tetrazol-1-yl)propan-2-yl)oxy)-4-chlorophenyl)pyrimidin-2-yl)amino)-3-(trifluoromethyl)-1H-pyrazol-1-yl)ethyl)methanesulfonamide]",10 to 100

# Same assay, conditions: Table 2; CaMKIIδ binding assay, activity given as class A/B/C
row,SMILES,IC50 [nM]
1,"C[C@@H](Cn1cnnn1)Oc1cc(-c2cnc(Nc3cn(CC(F)F)nc3C(F)(F)F)nc2)ccc1Cl [Example 743, (S)-5-(3-((1-(1H-tetrazol-1-yl)propan-2-yl)oxy)-4-chlorophenyl)-N-(1-(2,2-difluoroethyl)-3-(trifluoromethyl)-1H-pyrazol-4-yl)pyrimidin-2-amine]",10 to 100
2,"C[C@@H](Cn1cnnn1)Oc1cc(-c2cnc(Nc3ccnn3C)nc2)ccc1Cl [Example 735, (S)-5-(3-((1-(1H-tetrazol-1-yl)propan-2-yl)oxy)-4-chlorophenyl)-N-(1-methyl-1H-pyrazol-5-yl)pyrimidin-2-amine]",10 to 100
3,"C[C@@H](Cn1cnnn1)Oc1cc(-c2cnc(Nc3cn(C4CC5(C4)CN(CC(C)(C)O)C5)nc3C(F)(F)F)nc2)ccc1Cl [Example 859, (S)-1-(6-(4-((5-(3-((1-(1H-tetrazol-1-yl)propan-2-yl)oxy)-4-chlorophenyl)pyrimidin-2-yl)amino)-3-(trifluoromethyl)-1H-pyrazol-1-yl)-2-azaspiro[3.3]heptan-2-yl)-2-methylpropan-2-ol]",< 10
4,"C[C@@H](Cn1cnnn1)Oc1cc(-c2cnc(Nc3cn([C@H]4CC[C@H](N5CC6(COC6)C5)CC4)nc3C(F)(F)F)nc2)ccc1Cl [Example 822, 5-(3-(((S)-1-(1H-tetrazol-1-yl)propan-2-yl)oxy)-4-chlorophenyl)-N-(1-(trans-4-(2-oxa-6-azaspiro[3.3]heptan-6-yl)cyclohexyl)-3-(trifluoromethyl)-1H-pyrazol-4-yl)pyrimidin-2-amine]",< 10
5,"C[C@@H](Cn1cnnn1)Oc1cc(-c2cnc(Nc3cn(C4CCN(C)CC4)nc3OCC(F)F)nc2)ccc1Cl [Example 793, (S)-5-(3-((1-(1H-tetrazol-1-yl)propan-2-yl)oxy)-4-chlorophenyl)-N-(3-(2,2-difluoroethoxy)-1-(1-methylpiperidin-4-yl)-1H-pyrazol-4-yl)pyrimidin-2-amine]",< 10

# Same assay, conditions: Table 2; activity class for CaMKIIδ
row,SMILES,IC50 [nM]
1,"C[C@@H](Cn1cnnn1)Oc1cc(-c2cnc(Nc3cn(CC(O)C(F)(F)F)nc3C(F)(F)F)nc2)ccc1Cl (stereo partly drawn) [Example 728, 3-(4-((5-(3-(((S)-1-(1H-tetrazol-1-yl)propan-2-yl)oxy)-4-chlorophenyl)pyrimidin-2-yl)amino)-3-(trifluoromethyl)-1H-pyrazol-1-yl)-1,1,1-trifluoropropan-2-ol]",10 to 100
2,"CCn1cc(Nc2ncc(-c3ccc(Cl)c(O[C@@H](C)Cn4cnnn4)c3)cn2)c(-c2ccccc2)n1 [Example 643, (S)-5-(3-((1-(1H-tetrazol-1-yl)propan-2-yl)oxy)-4-chlorophenyl)-N-(1-ethyl-3-phenyl-1H-pyrazol-4-yl)pyrimidin-2-amine]",10 to 100
3,"COc1nn(C2CCN(C(=O)OC(C)(C)C)CC2)cc1Nc1ncc(-c2ccc(Cl)c(O[C@@H](C)Cn3cnnn3)c2)cn1 [Example 646, tert-butyl (S)-4-(4-((5-(3-((1-(1H-tetrazol-1-yl)propan-2-yl)oxy)-4-chlorophenyl)pyrimidin-2-yl)amino)-3-methoxy-1H-pyrazol-1-yl)piperidine-1-carboxylate]",10 to 100
4,"C[C@@H](Cn1cnnn1)Oc1cc(-c2cnc(Nc3cn([C@H]4CC[C@@H](C(=O)O)CC4)nc3C(F)(F)F)nc2)ccc1Cl [Example 625, cis-(S)-4-(4-((5-(3-((1-(1H-tetrazol-1-yl)propan-2-yl)oxy)-4-chlorophenyl)pyrimidin-2-yl)amino)-3-(trifluoromethyl)-1H-pyrazol-1-yl)cyclohexane-1-carboxylic acid]",≥ 100
5,"C[C@@H](Cn1cnnn1)Oc1cc(-c2cnc(Nc3cn(C4CNC4)nc3C(F)(F)F)nc2)ccc1Cl [Example 697, (S)-5-(3-((1-(1H-tetrazol-1-yl)propan-2-yl)oxy)-4-chlorophenyl)-N-(1-(azetidin-3-yl)-3-(trifluoromethyl)-1H-pyrazol-4-yl)pyrimidin-2-amine]",< 10
6,"CCOc1nn(C2CCN(C3CCOCC3)CC2)cc1Nc1ncc(-c2ccc(Cl)c(O[C@@H](C)Cn3cnnn3)c2)cn1 [Example 587, (S)-5-(3-((1-(1H-tetrazol-1-yl)propan-2-yl)oxy)-4-chlorophenyl)-N-(3-ethoxy-1-(1-(tetrahydro-2H-pyran-4-yl)piperidin-4-yl)-1H-pyrazol-4-yl)pyrimidin-2-amine]",< 10
7,"C[C@@H](Cn1cnnn1)Oc1cc(-c2cnc(Nc3cn(Cc4cccnc4)nc3C(F)(F)F)nc2)ccc1Cl [Example 708, (S)-5-(3-((1-(1H-tetrazol-1-yl)propan-2-yl)oxy)-4-chlorophenyl)-N-(1-(pyridin-3-ylmethyl)-3-(trifluoromethyl)-1H-pyrazol-4-yl)pyrimidin-2-amine]",10 to 100
